According to ChEMBL document CHEMBL3580616, “Structure-based design of potent HIV-1 protease inhibitors with modified P1-biphenyl ligands: synthesis, biological evaluation, and enzyme-inhibitor X-ray structural studies” (J Med Chem, 2015):

Assays:
[1] = test system: Human immunodeficiency virus 1; assay: Antiviral activity against wild type HIV1 ERS104P infected in human PHA-PBMs assessed as inhibition of p24 Gag protein production; conditions: Human immunodeficiency virus 1, ERS104P
[2] = test system: Human immunodeficiency virus 1; assay: Antiviral activity against multidrug resistant HIV1 MDR/B containing protease mutant infected in human PHA-PBMs assessed as inhibition of p24 Gag protein production; conditions: Human immunodeficiency virus 1, MDR/B
[3] = test system: Human immunodeficiency virus 1; assay: Antiviral activity against multidrug resistant HIV1 MDR/C containing protease mutant infected in human PHA-PBMs assessed as inhibition of p24 Gag protein production; conditions: Human immunodeficiency virus 1, MDR/C
[4] = test system: Human immunodeficiency virus 1; assay: Antiviral activity against multidrug resistant HIV1 MDR/G containing protease mutant infected in human PHA-PBMs assessed as inhibition of p24 Gag protein production; conditions: Human immunodeficiency virus 1, MDR/G
[5] = test system: Human immunodeficiency virus 1; assay: Antiviral activity against multidrug resistant HIV1 MDR/B containing protease mutant infected in human PHA-PBMs assessed as inhibition of p24 Gag protein production relative to wild type
[6] = test system: Human immunodeficiency virus 1; assay: Antiviral activity against multidrug resistant HIV1 MDR/C containing protease mutant infected in human PHA-PBMs assessed as inhibition of p24 Gag protein production relative to wild type
[7] = test system: Human immunodeficiency virus 1; assay: Antiviral activity against multidrug resistant HIV1 MDR/G containing protease mutant infected in human PHA-PBMs assessed as inhibition of p24 Gag protein production relative to wild type
Protease = Protease (Human immunodeficiency virus 1, UniProt Q9YQ12); assay: Inhibition of wild type HIV1 protease
Sequence of Protease (Q9YQ12 whole entry): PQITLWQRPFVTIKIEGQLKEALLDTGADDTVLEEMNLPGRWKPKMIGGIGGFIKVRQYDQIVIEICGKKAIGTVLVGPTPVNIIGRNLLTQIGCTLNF

[8] = test system: Human immunodeficiency virus 1; assay: Antiviral activity against HIV1 LAI infected in human MT-2 cells assessed as virus-induced cytopathic effect by MTT assay; conditions: Human immunodeficiency virus 1, LAI

SMILES	Ki (Protease) [nM]	IC50 [8] [nM]	other results
CC(C)CN(C[C@@H](O)[C@H](Cc1ccccc1)NC(=O)O[C@H]1CCOC1)S(=O)(=O)c1ccc(N)cc1			EC50 [1]: 37 nM; EC50 [2]: 44 nM; EC50 [3]: 380 nM; EC50 [4]: 398 nM; fold change (FC) [5]: 12; fold change (FC) [6]: 10; fold change (FC) [7]: 11
COc1ccc(S(=O)(=O)N(CC(C)C)C[C@@H](O)[C@H](Cc2cccc(-c3c(OC)cccc3OC)c2)NC(=O)O[C@H]2CO[C@H]3OCC[C@H]32)cc1	0.025	24	
COc1ccc(S(=O)(=O)N(CC(C)C)C[C@@H](O)[C@H](Cc2cccc(-c3cccc(OC)c3)c2)NC(=O)O[C@H]2CO[C@H]3OCC[C@H]32)cc1	0.014	5	
COc1ccc(S(=O)(=O)N(CC(C)C)C[C@@H](O)[C@H](Cc2cccc(-c3cc(C)cc(C)c3)c2)NC(=O)O[C@H]2CO[C@H]3OCC[C@H]32)cc1	0.45	56	
COc1ccc(S(=O)(=O)N(CC(C)C)C[C@@H](O)[C@H](Cc2cccc(-c3cc(OC)cc(OC)c3)c2)NC(=O)O[C@H]2CO[C@H]3OCC[C@H]32)cc1	0.014	5	
COc1ccc(S(=O)(=O)N(CC(C)C)C[C@@H](O)[C@H](Cc2cccc(-c3cc(C)cc(C)c3)c2)NC(=O)O[C@H]2CCOC2)cc1	0.63	> 1000	
COc1ccc(S(=O)(=O)N(CC(C)C)C[C@@H](O)[C@H](Cc2cccc(-c3cccc(OC)c3)c2)NC(=O)O[C@H]2CCOC2)cc1	1.53	> 381	
COc1ccc(S(=O)(=O)N(CC(C)C)C[C@@H](O)[C@H](Cc2cccc(-c3cc(OC)cc(OC)c3)c2)NC(=O)O[C@H]2CCOC2)cc1	0.58	180	
COc1ccc(S(=O)(=O)N(CC(C)C)C[C@@H](O)[C@H](Cc2cccc(-c3cc(C)cc(C)c3)c2)NC(=O)OC(C)(C)C)cc1	48.8	> 1000	
COc1ccc(S(=O)(=O)N(CC(C)C)C[C@@H](O)[C@H](Cc2cccc(-c3cc(OC(F)(F)F)cc(OC(F)(F)F)c3)c2)NC(=O)OC(C)(C)C)cc1	92.8	> 1000	
COc1ccc(S(=O)(=O)N(CC(C)C)C[C@@H](O)[C@H](Cc2cccc(-c3ccc4c(c3)OCO4)c2)NC(=O)OC(C)(C)C)cc1	18	> 1000	
COc1ccc(S(=O)(=O)N(CC(C)C)C[C@@H](O)[C@H](Cc2cccc(-c3cc(OC)cc(OC)c3)c2)NC(=O)OC(C)(C)C)cc1	0.82	> 1000	
COc1ccc(S(=O)(=O)N(CC(C)C)C[C@@H](O)[C@H](Cc2cccc(-c3ccccc3OC)c2)NC(=O)O[C@H]2CO[C@H]3OCC[C@H]32)cc1	0.012	3	EC50 [1]: 4.8 nM; EC50 [2]: 36 nM; EC50 [3]: 2.9 nM; EC50 [4]: 4.7 nM; fold change (FC) [5]: 8; fold change (FC) [6]: 1; fold change (FC) [7]: 1
